In patent publication US9969973B2, “Methods and compositions for cell attachment and cultivation on planar substrates” (Janssen Biotech, Inc., priority 2008, dated 2018):

How the values were obtained:
[1] = system: human embryonic stem cell line H9; assay: Attachment of H9 cells to mixed cellulose ester membrane No. 1 with Y26732; type: cell-based; settings: for Effect of Y26732 on attachment of H9 cells: 24 hours
Description: Cells of the human embryonic stem cell line H9 were cultured on MATRIGEL® coated dishes prior to experimental manipulation. Cells were seeded a mixed cellulose ester membrane (membrane No. 1) at a density of 150,000 cells/cm^2 in MEF conditioned medium. The planar substrate lacked an adlayer and a fibroblast feeder cell layer. The effect of the Rho Kinase inhibitor treatment on the attachment to the planar substrate was examined Cells were treated with 0, 10, or 20 μM Y26732. After 24 hours, the cells were fixed with 4% paraformaldehyde, rinsed with PBS, air dried, stained with crystal violet dye. The number of cells was determined via light microscopy. Wells containing vehicle were included as a control.

[2] = system: human embryonic stem cell line H9; assay: Attachment of H9 cells to polycarbonate Membrane No. 7 with Y26732; type: cell-based; settings: 24 hours
Description: Cells of the human embryonic stem cell line H9 were seeded onto a planar substrate comprising polycarbonate (Membrane No. 7) at a density of 150,000 cells/cm^2 in MEF conditioned medium. The effect of Rho kinase inhibitor treatment on attachment was examined: The Rho Kinase inhibitor Y26732 was added to the culture medium at concentration of 0, 10, or 20 μM. After 24 hours, the cells on the membrane were fixed with 4% paraformaldehyde at room temperature, rinsed with PBS, air dried, stained with crystal violet dye. The number of cells was determined via light microscopy. Wells containing vehicle were included as a control.

[3] = system: dissociated human embryonic stem cells; settings: serum-free suspension culture; cited from earlier work
[4] = system: human embryonic stem cells; settings: cited from earlier work
[5] = system: human embryonic stem cell line H1; assay: Attachment of human embryonic stem cell line H1 to planar substrates of Table 1, with or without H-1152; type: cell-based
Description: Prior to testing, cells of the human embryonic stem cell line H1 cells were expanded on tissue culture plates coated with a 1:30 dilution of growth factor-reduced MATRIGEL®. Cells were seeded onto 100 mm culture dishes in 10 ml MEF conditioned media supplemented with 20 ng/ml bFGF (MEF-CM/bFGF). The cells were cultured at 37° C. in a humidified with a 5% CO2 atmosphere. The media was changed everyday with fresh MEF-CM/bFGF. Once the cells reached approximately 80% confluence, the cells were passaged by treatment with 1 mg/ml LIBERASE for 5 minutes at 37° C. The digestion was stopped by removing enzyme from the dish and rinsing the cells with MEF-CM/bFGF. The cells were collected by manual scraping in 10 ml MEF-CM/bFGF and transferred to a 50-ml conical tube. The cells were centrifuged at 200×g (1000 rpm) on a tabletop centrifuge to form a pellet. […]
Cells of the human embryonic stem cell line H1 were seeded onto the various planar substrates set forth in Table 1, at a density of 100,000 cells/cm^2. […] The effect of the Rho kinase inhibitor H-1152 on the attachment of the cells to the planar substrates was determined 3 μM H-1152 was added to the medium used to seed the cells. […] The cells were then stained with 1% hematoxylin, and the number of cells was determined via light microscopy. […]

[6] = system: human embryonic stem cell line H1; assay: Attachment of H1 cells to polycarbonate Membrane No. 7 with H-1152 concentration series; type: cell-based; settings: 24 hours
Description: In a separate experiment, the effect of the Rho kinase inhibitor H-1152 on the attachment of cells of the human embryonic stem cell line H1 to Membrane No. 7 was determined. The cells were seeded on a planar substrate comprising polycarbonate membranes (membrane No. 7) at a density of 150,000 cells/cm^2 in MEF-CM containing 20 ng/ml bFGF. The Rho Kinase inhibitor H-1152 was added to the culture medium at concentration of 0, 0.03, 0.1, 0.3, 1, and 3 μM. After 24 hours, the cells on the membrane were fixed with 4% paraformaldehyde, rinsed with PBS, air dried, stained with crystal violet dye. The number of cells was determined via light microscopy. Wells containing vehicle were included as a control.

[7] = system: human embryonic stem cell line H1; assay: Detachment of H1 cells from polycarbonate Membrane No. 9 after removal of H-1152; type: cell-based; settings: 3 μM for 24 hr, then 24 hours without
Description: Cells of the human embryonic stem cell line H1 were seeded on to a planar substrate comprising polycarbonate (Membrane No. 9) at a density of 100,000 cells/cm^2, in MEF conditioned medium containing 20 ng/ml bFGF and 3 μM of the Rho kinase inhibitor H-1152. The cells were cultured for 24 hr. After this time, the culture medium was replaced with MEF conditioned medium containing 20 ng/ml bFGF, lacking H-1152. After 24 hours, the cells on the membrane were fixed with 4% paraformaldehyde, rinsed with PBS, air dried, stained with crystal violet dye. The number of cells was determined via light microscopy. Wells containing H-1152 were included as a control.

[8] = system: human embryonic stem cell line H1; assay: Effect of porosity and Rho kinase inhibition on attachment of H1 cells (Membranes No. 10 and 11); type: cell-based
Description: Cells of the human embryonic stem cell line H1 at passage 42 were seeded onto the following planar substrates: Membrane No. 10 (pore size 0.4 μm); and Membrane No. 11 (pore size 3 μm). Cells were seeded at a density of 100,000 cells/cm^2, in MEF conditioned medium containing 20 ng/ml bFGF. The effect of Rho kinase inhibition on the attachment of the cells to the planar substrates was also examined. The cell culture medium was supplemented with 0.3 μM H-1152. After 24 hours, the culture medium was replaced with MEF conditioned medium containing 20 ng/ml bFGF, lacking H-1152. After another 24 hours culture, the cells on the membrane were fixed with 4% paraformaldehyde, rinsed with PBS, air dried, stained with crystal violet dye. Wells containing 1 μM H-1152 were included as a control. The number of cells was determined via light microscopy. Wells containing vehicle were included as a control.

| SMILES | Effect of Y26732 on attachment of H9 cells ([1]; 10 μM) | Effect of Y26732 on attachment of H9 cells ([1]; 20 μM) | Effect of removal of Y26732 from the culture medium ([1]; removal for 24 hr) | Effect of Y26732 on attachment of H9 cells ([2]; 10 μM) | Effect of Y26732 on attachment of H9 cells ([2]; 20 μM) | apoptosis of dissociated human ES cells [3] | attachment of human embryonic stem cells on surface modified plates [4] | Effect of H-1152 on attachment of H1 cells ([5]; 3 μM H-1152, membranes No. 2, 4 and 5) | Effect of removal of H-1152 from the culture medium on attached H1 cells ([5]; membranes No. 7 and No. 12) | Attachment of H1 cells with H-1152 ([6]; 0.03 μM) | Attachment of H1 cells with H-1152 ([6]; 0.1 μM) | Attachment of H1 cells with H-1152 ([6]; 0.3 μM) | Attachment of H1 cells with H-1152 ([6]; 1 μM) | Attachment of H1 cells with H-1152 ([6]; 3 μM) | Effect of removal of H-1152 from the culture medium [7] | Need for H-1152 to maintain attachment of H1 cells ([8]; 1 μM, Membranes No. 10 and 11) | Effect of removal of H-1152 from the culture medium ([8]; Membrane No. 10 and Membrane No. 11) |
| --- | --- | --- | --- | --- | --- | --- | --- | --- | --- | --- | --- | --- | --- | --- | --- | --- | --- |
| C[C@@H](N)[C@H]1CC[C@H](C(=O)Nc2ccncc2)CC1 [Membrane Y26732] | increased the attachment | increased the attachment | did not result in the detachment | resulted in the attachment | resulted in the attachment | protected from apoptosis | enhance the attachment | – | – | – | – | – | – | – | – | – | – |
| Cc1cncc2cccc(S(=O)(=O)N3CCCNC[C@@H]3C)c12 [Membrane H-1152] | – | – | – | – | – | – | – | enhanced | led to detachment of H1 cells | do not attach | do not attach | attachment was observed | attachment was observed | attachment was observed | resulted in the detachment of cells | required to maintain the attachment | resulted in detachment of cells |
